According to patent publication US10966994B2, “Thromboxane receptor antagonists” (ATXA THERAPEUTICS LIMITED, priority 2015, dated 2021):

How the values were obtained:
[1] = target: T1, TPα (Homo sapiens, UniProt P21731); experiment: U46619-mediated calcium mobilization in HEK.TPα cells; format: cell-based; details: for IC50: 1 μM U46619, estimated IC50, mean ± S.E.M., read-out: IC50 values for Inhibition of U46619-Mediated [Ca2+]i Mobilisation, TPα; for inhibition of U46619-mediated calcium mobilization, TPα (in words): 1 μM U46619
T1 construct: expressed in transfected cells; host or cells: HEK 293 (HEK.TPα, isolate HR #4)
T1 sequence (P21731 1-343): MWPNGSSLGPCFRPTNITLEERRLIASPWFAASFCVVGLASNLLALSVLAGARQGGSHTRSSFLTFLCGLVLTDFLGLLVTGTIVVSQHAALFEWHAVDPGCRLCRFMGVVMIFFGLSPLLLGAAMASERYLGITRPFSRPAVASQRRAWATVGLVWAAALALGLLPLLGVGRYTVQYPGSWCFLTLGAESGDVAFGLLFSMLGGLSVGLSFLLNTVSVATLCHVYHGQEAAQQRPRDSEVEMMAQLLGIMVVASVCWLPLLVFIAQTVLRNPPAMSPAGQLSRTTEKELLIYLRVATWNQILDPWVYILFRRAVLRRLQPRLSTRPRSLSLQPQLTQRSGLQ
Experimental: NTP42-NTP49, northern group variants of NTP4, were assessed through calcium mobilization assays using proprietary HEK 293 cells over-expressing the thromboxane (TX)A2 receptor, α (TPα) and β (TPβ) isoforms, referred to as HEK.TPα and HEK.TPβ cells, respectively. The initial screening involved dose-responses assays (concentrations used 0.0001 (TPβ only), 0.001, 0.1, 1 & 10 μM; (TPα and TPβ)) followed by more focused, full dose response assays (concentration range: 0.00001 to 10 μM) for determination of IC50 values where the effect of the compounds on calcium mobilized in response to the TXA2 mimetic U46619 (1 μM) were performed in side-by-side comparison with the key lead compounds TP20 and NTP4.
As stated, NTP42-NTP49 were screened through calcium mobilization assays using HEK.TPα and HEK.TPβ cells over-expressing the thromboxane (TX)A2 receptor, α (TPα) and β (TPβ) isoforms, respectively. The initial screening involved dose-response assays where the compounds, used at 0.0001 (TPβ only), 0.001, 0.1, 1 & 10 μM (TPα and TPβ), were assessed for their ability to inhibit the TXA2 mimetic U46619 (1 μM). The compounds were tested in side-by-side assays with the previously identified key lead compounds TP20 and NTP4.
(§1) HEK.TPα (HR #4) cells, preloaded with Fluo-4, were incubated with the TP20, NTP4, NTP42, NTP43, NTP44, NTP45, NTP47, NTP48 & NTP49 where each antagonist was used at 0.001, 0.1, 1 & to 10 μM, as indicated, prior to stimulation with 1 μM U46619. Data is presented as the mean (±S.E.M.) percentage of the agonist-induced response in vehicle-treated cells (Percentage of Control; %) and represents data from at least 4 independent experiments were cells were treated in duplicate.
as §1, with “NTP42, NTP43 and” for “NTP42, NTP43, NTP44, NTP45, NTP47,”, “NTP48” for “NTP48 & NTP49”, “at 0.00001-10” for “at 0.001, 0.1, 1 & to 10”, “the agonist induced” for “the agonist-induced”, “least 3” for “least 4”

[2] = target: T1, TPα; experiment: 8-iso-PGF2α-mediated calcium mobilization in HEK.TPα cells; format: cell-based; details: 10 μM 8-iso-PGF2α, estimated IC50, read-out: IC50 values for inhibition of 8-iso-PGF2α-mediated [Ca2+]i mobilization, TPα
Text: (§2) Effect of NTP42-NTP48 on 8-iso-PGF2α-mediated Calcium Mobilization In addition, to assessment of the compounds to antagonise U46619-mediated responses, the ability of NTP42 & NTP43 to inhibit the partial TP agonist 8-iso-PGF2α has been examined through calcium mobilization assays in HEK.TPα and HEK.TPβ cells.
(§3) Data is presented as the mean (±S.E.M.) percentage of the agonist-induced response in vehicle-treated cells (Percentage of Control; %) and represents data from at least 3 independent experiments were cells were treated in duplicate, except NTP48.

[3] = target: T2, TPβ (Homo sapiens, UniProt P21731); experiment: 8-iso-PGF2α-mediated calcium mobilization in HEK.TPβ cells; format: cell-based; details: 10 μM 8-iso-PGF2α, estimated IC50, read-out: IC50 values for inhibition of 8-iso-PGF2α-mediated [Ca2+]i mobilization, TPβ
T2 construct: expressed in transfected cells; host or cells: HEK 293 (HEK.TPβ, isolate EM #8)
T2 sequence (P21731 1-407 isoform P21731-2): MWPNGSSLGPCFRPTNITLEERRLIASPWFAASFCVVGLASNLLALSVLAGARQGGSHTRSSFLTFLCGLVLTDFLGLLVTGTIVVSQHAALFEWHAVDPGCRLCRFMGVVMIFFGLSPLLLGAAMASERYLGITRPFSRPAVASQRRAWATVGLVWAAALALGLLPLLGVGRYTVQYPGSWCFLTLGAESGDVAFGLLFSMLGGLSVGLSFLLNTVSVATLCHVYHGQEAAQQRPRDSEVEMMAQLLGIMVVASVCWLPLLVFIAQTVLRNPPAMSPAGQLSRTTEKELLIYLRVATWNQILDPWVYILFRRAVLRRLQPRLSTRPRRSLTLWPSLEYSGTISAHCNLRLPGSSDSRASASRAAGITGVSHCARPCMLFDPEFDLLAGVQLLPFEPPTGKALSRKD
Text: as §2, §3

[4] = target: EP2 receptor (Homo sapiens, UniProt P43116); experiment: Specificity testing, EP2 receptor signaling; format: cell-based
EP2 receptor, sequence (P43116 whole entry): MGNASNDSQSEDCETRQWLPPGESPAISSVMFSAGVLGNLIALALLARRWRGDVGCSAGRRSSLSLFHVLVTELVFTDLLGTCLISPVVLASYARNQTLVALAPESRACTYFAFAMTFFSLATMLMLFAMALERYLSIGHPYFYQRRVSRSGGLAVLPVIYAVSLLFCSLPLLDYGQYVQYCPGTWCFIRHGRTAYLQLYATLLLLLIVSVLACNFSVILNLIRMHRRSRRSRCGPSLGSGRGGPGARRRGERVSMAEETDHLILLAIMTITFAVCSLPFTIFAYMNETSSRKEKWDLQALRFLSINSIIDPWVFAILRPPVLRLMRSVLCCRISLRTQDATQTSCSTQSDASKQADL

[5] = target: EP4 receptor (Homo sapiens, UniProt P35408); experiment: Specificity testing, EP4 receptor signaling; format: cell-based
EP4 receptor, sequence (P35408 whole entry): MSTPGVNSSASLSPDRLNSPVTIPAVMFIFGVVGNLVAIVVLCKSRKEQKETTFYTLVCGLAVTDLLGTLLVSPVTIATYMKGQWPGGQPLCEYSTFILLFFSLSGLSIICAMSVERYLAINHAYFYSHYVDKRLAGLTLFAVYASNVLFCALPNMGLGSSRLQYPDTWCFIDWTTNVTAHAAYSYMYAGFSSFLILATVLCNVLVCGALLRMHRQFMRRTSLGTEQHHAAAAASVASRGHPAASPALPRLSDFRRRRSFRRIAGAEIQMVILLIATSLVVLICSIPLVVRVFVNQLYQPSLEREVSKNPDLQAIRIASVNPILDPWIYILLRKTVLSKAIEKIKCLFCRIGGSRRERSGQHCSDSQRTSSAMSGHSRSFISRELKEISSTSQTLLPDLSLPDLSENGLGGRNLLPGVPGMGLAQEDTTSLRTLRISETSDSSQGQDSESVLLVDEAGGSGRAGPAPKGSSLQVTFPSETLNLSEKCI
Experimental: (§4) There is no or minimal inhibition of the majority of the non-TP-mediated signaling observed in the presence of either NTP42 & NTP48. Where there is inhibition of signaling, it is observed at the 10 μM concentration only. […] Compared to NTP42, NTP48 has less of an effect on the signaling of the non-TP prostanoid receptors and therefore, may be considered more favorable in this context.

[6] = target: IP receptor (Homo sapiens, UniProt P43119); experiment: Specificity testing, IP receptor signaling; format: cell-based
IP receptor, sequence (P43119 whole entry): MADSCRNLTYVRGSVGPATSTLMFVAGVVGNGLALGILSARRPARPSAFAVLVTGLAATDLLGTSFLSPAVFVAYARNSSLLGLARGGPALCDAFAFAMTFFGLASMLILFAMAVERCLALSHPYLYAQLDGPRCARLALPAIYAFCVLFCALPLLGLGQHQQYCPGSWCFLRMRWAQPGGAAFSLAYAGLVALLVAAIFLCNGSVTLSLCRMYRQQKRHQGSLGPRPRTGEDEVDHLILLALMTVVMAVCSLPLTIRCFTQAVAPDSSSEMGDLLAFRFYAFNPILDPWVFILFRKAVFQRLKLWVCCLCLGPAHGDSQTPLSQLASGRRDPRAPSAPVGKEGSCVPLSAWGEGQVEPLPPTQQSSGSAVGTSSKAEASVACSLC
Experimental: as §4

[7] = test system: purinergic (ADP) receptors; experiment: Specificity testing, purinergic (ADP) receptor signaling
[8] = target: T3, thrombin (PAR1) receptors (Homo sapiens, UniProt P25116); experiment: Specificity testing, thrombin (PAR1) receptor signaling
T3 sequence (P25116 22-425): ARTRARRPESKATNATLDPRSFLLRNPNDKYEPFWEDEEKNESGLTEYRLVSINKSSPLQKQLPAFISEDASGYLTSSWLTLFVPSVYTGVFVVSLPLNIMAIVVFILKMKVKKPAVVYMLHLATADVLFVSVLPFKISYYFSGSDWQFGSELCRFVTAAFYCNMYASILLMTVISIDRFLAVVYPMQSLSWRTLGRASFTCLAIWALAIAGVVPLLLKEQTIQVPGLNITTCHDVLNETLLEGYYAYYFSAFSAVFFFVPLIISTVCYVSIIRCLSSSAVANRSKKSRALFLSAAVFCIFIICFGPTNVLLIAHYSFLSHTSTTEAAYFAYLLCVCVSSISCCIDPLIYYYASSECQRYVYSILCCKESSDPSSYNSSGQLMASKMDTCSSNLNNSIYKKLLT

[9] = Cell permeability; format: in vitro ADME
[10] = maximal inhibition, at 10 μM only

| SMILES | IC50 [2] [nM] | IC50 [3] [nM] | cell permeability [9] | IC50 [1] [nM] | effect on the EP2 receptor [4] | effect on the EP4 receptor [5] | percentage reduction in responses, EP4 [5, 10] [%] | effect on the IP receptor [6] | percentage reduction in responses, IP [6, 10] [%] | effect on signaling through purinergic (ADP) receptors [7] | effect on signaling through thrombin (PAR1) receptors [8] | inhibition of U46619-mediated calcium mobilization, TPα (in words) [1] |
| --- | --- | --- | --- | --- | --- | --- | --- | --- | --- | --- | --- | --- |
| CC(C)(C)NC(=O)NS(=O)(=O)c1cc(C#N)ccc1Oc1cccc(-c2ccc(OC(F)F)cc2)c1 [NTP42] | 12.8 ± 1.42 | 8 ± 1 | favorable cell permeability | 56.2 ± 4.84 | no effect | no effect | 40 | no effect | 50 | neither NTP42, NTP43 nor NTP48 exhibited any effect | neither NTP42, NTP43 nor NTP48 exhibited any effect |  |
| COc1ccc(-c2cccc(Oc3ccc([N+](=O)[O-])cc3S(=O)(=O)NC(=O)NC(C)(C)C)c2)cc1 [TP20, reference compound] | 46.4 ± 4.24 | 17 ± 2.12 |  | 125 ± 11.4 | like TP20 and NTP4, neither NTP42, NTP43 nor NTP48 exhibited any effect | like TP20 and NTP4, neither NTP42, NTP43 nor NTP48 exhibited any effect |  | like TP20 and NTP4, neither NTP42, NTP43 nor NTP48 exhibited any effect |  | like TP20 and NTP4, neither NTP42, NTP43 nor NTP48 exhibited any effect | like TP20 and NTP4, neither NTP42, NTP43 nor NTP48 exhibited any effect | potently inhibited |
| COc1ccc(-c2cccc(Oc3ccc(C#N)cc3S(=O)(=O)NC(=O)NC(C)(C)C)c2)cc1 [NTP4, reference compound] | 103 ± 11.1 | 58 ± 6.31 |  |  | like TP20 and NTP4, neither NTP42, NTP43 nor NTP48 exhibited any effect | like TP20 and NTP4, neither NTP42, NTP43 nor NTP48 exhibited any effect |  | like TP20 and NTP4, neither NTP42, NTP43 nor NTP48 exhibited any effect |  | like TP20 and NTP4, neither NTP42, NTP43 nor NTP48 exhibited any effect | like TP20 and NTP4, neither NTP42, NTP43 nor NTP48 exhibited any effect | potently inhibited |

Further lines, with some results ahead:

| IC50 [2] [nM] | IC50 [3] [nM] | cell permeability [9] | SMILES | IC50 [1] [nM] | effect on the EP2 receptor [4] | effect on the EP4 receptor [5] | percentage reduction in responses, EP4 [5, 10] [%] | effect on the IP receptor [6] | percentage reduction in responses, IP [6, 10] [%] | effect on signaling through purinergic (ADP) receptors [7] | effect on signaling through thrombin (PAR1) receptors [8] | inhibition of U46619-mediated calcium mobilization, TPα (in words) [1] |
| --- | --- | --- | --- | --- | --- | --- | --- | --- | --- | --- | --- | --- |
| 30.7 ± 5.05 | 9 ± 1.6 | favorable cell permeability | CC(C)(C)NC(=O)NS(=O)(=O)c1cc(C#N)ccc1Oc1cccc(-c2ccc(OC(F)(F)F)cc2)c1 [NTP43] | 105 ± 7.95 | not to exhibit any effect | not to exhibit any effect |  | not to exhibit any effect |  | neither NTP42, NTP43 nor NTP48 exhibited any effect | neither NTP42, NTP43 nor NTP48 exhibited any effect |  |
| 29.3 ± 3.87 | 15.4 ± 2.16 | favorable cell permeability | CN(C)C(=O)c1ccc(-c2cccc(Oc3ccc(C#N)cc3S(=O)(=O)NC(=O)NC(C)(C)C)c2)cc1 [NTP48, 4-[3-[2-(tert-Butylcarbamoylsulfamoyl)-4-cyano-phenoxy]phenyl]-N,N-dimethyl-benzamide] | 90.1 ± 6.43 | no effect | no effect |  | no effect |  | neither NTP42, NTP43 nor NTP48 exhibited any effect | neither NTP42, NTP43 nor NTP48 exhibited any effect |  |
